Measured values taken from ChEMBL document CHEMBL1201862, “PubChem BioAssay data set” (2004).
The source made the active and inactive calls.

What was measured:
[1] = target: Ribosomal protein S6 kinase alpha-3 (Homo sapiens, UniProt P51812); type: functional;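 also: measured within a kinome-wide profiling panel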
[2] = target: Protein kinase C zeta type (Homo sapiens, UniProt Q05513); type: functional;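 also: measured as one member of a broad kinase profiling panel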
[3] = target: Serine/threonine-protein kinase PLK3 (Homo sapiens, UniProt Q9H4B4); type: functional
Chain of Serine/threonine-protein kinase PLK3 (Q9H4B4 whole entry): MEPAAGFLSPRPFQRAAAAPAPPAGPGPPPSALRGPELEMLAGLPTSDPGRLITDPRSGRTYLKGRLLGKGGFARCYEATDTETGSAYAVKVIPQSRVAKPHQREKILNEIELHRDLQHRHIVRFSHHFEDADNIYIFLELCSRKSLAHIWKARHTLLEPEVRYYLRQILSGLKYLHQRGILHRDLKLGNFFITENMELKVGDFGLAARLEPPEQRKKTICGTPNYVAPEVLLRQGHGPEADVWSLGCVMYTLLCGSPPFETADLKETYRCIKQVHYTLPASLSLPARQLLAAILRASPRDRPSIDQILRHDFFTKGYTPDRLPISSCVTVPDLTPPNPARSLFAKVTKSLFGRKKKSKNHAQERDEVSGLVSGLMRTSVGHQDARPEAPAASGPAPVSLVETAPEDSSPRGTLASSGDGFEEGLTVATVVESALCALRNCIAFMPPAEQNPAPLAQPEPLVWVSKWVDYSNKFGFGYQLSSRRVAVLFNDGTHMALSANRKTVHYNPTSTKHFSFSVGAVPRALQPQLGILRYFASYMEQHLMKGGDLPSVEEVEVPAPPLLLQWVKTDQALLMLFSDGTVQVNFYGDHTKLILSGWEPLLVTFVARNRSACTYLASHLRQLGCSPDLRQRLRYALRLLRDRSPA

[4] = target: RAC-gamma serine/threonine-protein kinase (Homo sapiens, UniProt Q9Y243); type: functional
[5] = target: 5'-AMP-activated protein kinase catalytic subunit alpha-1 (Homo sapiens, UniProt Q13131); type: functional
[6] = target: Protein kinase C delta type (Homo sapiens, UniProt Q05655); type: functional
[7] = target: Ribosomal protein S6 kinase beta-1 (Homo sapiens, UniProt P23443); type: functional;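 also: measured as one member of a kinome-wide profiling panel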
Chain of Ribosomal protein S6 kinase beta-1 (P23443 whole entry): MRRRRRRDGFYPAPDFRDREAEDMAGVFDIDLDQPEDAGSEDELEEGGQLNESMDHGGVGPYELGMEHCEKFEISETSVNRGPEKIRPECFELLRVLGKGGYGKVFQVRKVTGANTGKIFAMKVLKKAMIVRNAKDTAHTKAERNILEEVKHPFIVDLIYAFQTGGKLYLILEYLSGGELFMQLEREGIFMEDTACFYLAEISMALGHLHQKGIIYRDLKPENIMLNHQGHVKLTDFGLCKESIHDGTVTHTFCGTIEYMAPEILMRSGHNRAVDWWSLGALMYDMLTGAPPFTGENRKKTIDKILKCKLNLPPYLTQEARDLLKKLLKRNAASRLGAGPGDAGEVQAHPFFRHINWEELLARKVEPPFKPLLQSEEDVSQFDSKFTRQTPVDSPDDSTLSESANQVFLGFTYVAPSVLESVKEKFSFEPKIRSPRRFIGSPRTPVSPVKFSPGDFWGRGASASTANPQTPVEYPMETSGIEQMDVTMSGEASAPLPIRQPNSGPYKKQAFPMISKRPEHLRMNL

[8] = target: Serine/threonine-protein kinase Chk2 (Homo sapiens, UniProt O96017); type: functional;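 also: CHEK2 entry within a kinome-wide screening panel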
[9] = target: Cyclin-dependent kinase 2 (Homo sapiens, UniProt P24941); type: functional;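 also: CDK2 measured as one member of a broad kinome profiling panel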
[10] = target: Serine/threonine-protein kinase pim-1 (Homo sapiens, UniProt P11309); type: functional
Chain of Serine/threonine-protein kinase pim-1 (P11309 whole entry): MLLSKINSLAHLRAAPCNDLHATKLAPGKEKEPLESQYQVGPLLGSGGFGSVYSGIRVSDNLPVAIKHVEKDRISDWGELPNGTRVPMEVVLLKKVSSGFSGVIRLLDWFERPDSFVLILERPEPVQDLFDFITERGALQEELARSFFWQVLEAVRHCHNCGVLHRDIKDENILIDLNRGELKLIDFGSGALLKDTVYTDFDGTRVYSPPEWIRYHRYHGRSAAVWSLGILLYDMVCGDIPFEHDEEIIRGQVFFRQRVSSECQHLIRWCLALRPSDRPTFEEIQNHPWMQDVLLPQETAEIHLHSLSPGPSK

Aurora kinase A = Aurora kinase A (Homo sapiens, UniProt O14965); type: functional;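 also: value from the Navigating the Kinome kinase panel profiling, panel entry STK6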
[11] = target: MAP kinase-activated protein kinase 2 (Homo sapiens, UniProt P49137); type: functional;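 also: measured as one member of a kinome-wide kinase panel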
[12] = target: Casein kinase II subunit alpha (Homo sapiens, UniProt P68400); type: functional
[13] = target: Serine/threonine-protein kinase PAK 4 (Homo sapiens, UniProt O96013); type: functional;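 also: value obtained within a kinome profiling panel in which PAK4 was one of the panel members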
[14] = target: Fibroblast growth factor receptor 1 (Homo sapiens, UniProt P11362); type: functional
[15] = target: MAP/microtubule affinity-regulating kinase 3 (Homo sapiens, UniProt P27448); type: functional;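 also: MARK3 affinity measured as one member of a kinome panel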
[16] = target: Protein kinase C gamma type (Homo sapiens, UniProt P05129); type: functional
[17] = target: Serine/threonine-protein kinase Chk1 (Homo sapiens, UniProt O14757); type: functional;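 also: measured as one member of a kinome-wide kinase profiling panel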
Ephrin type-A receptor 2 = Ephrin type-A receptor 2 (Homo sapiens, UniProt P29317); type: functional;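 also: EPHA2 tested as one member of a kinome-wide kinase panel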
Chain of Ephrin type-A receptor 2 (P29317 whole entry): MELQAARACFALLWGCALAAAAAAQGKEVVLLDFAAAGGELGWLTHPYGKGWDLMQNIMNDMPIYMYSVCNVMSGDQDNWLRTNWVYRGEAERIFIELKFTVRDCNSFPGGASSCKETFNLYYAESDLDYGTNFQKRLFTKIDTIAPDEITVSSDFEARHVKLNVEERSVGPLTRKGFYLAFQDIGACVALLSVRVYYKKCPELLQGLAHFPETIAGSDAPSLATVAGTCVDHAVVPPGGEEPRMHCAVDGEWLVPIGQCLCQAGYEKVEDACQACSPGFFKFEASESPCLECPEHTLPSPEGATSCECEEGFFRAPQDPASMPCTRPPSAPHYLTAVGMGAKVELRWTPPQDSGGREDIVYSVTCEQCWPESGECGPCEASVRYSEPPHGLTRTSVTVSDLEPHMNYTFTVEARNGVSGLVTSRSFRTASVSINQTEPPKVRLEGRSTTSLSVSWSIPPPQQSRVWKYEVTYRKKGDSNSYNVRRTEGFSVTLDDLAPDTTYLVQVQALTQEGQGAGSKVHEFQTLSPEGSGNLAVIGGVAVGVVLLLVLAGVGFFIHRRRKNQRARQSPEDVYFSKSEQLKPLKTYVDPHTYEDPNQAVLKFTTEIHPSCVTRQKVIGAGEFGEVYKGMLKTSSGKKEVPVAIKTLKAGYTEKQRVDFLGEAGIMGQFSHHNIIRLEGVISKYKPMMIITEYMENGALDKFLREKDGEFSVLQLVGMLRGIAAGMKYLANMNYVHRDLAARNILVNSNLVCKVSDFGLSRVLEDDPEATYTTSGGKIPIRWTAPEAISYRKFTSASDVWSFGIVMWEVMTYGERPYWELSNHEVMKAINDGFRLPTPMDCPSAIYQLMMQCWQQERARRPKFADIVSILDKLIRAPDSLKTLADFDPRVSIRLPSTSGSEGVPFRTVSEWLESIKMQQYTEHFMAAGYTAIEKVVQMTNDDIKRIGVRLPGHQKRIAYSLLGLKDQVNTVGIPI

[18] = target: RAC-alpha serine/threonine-protein kinase (Homo sapiens, UniProt P31749); type: functional;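 also: AKT1 affinity measured as one member of a kinome-wide kinase profiling panel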
Chain of RAC-alpha serine/threonine-protein kinase (P31749 whole entry): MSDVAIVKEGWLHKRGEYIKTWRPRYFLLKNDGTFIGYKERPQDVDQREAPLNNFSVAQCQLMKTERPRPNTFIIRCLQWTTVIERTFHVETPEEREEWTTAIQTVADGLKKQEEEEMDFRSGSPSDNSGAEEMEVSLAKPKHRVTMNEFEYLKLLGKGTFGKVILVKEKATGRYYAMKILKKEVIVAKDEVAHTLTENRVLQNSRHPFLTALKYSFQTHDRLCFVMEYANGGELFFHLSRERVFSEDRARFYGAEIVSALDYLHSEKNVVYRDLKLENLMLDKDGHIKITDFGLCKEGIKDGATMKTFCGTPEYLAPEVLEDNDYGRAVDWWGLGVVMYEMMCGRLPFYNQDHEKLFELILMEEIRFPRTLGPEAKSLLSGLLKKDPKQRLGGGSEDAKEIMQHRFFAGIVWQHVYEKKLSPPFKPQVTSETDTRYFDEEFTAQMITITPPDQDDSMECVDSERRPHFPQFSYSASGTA

[19] = target: Cyclin-dependent kinase 1 (Homo sapiens, UniProt P06493); type: functional;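 also: Kinome-wide panel profiling, with the target listed as panel member CDC2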
[20] = target: Serine/threonine-protein kinase PLK1 (Homo sapiens, UniProt P53350); type: functional;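 also: PLK1 measured as one member of a kinome-wide profiling panel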
[21] = target: Glycogen synthase kinase-3 beta (Homo sapiens, UniProt P49841); type: functional;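 also: value comes from a broad kinome profiling panel, with GSK3B as the panel member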
Chain of Glycogen synthase kinase-3 beta (P49841 whole entry): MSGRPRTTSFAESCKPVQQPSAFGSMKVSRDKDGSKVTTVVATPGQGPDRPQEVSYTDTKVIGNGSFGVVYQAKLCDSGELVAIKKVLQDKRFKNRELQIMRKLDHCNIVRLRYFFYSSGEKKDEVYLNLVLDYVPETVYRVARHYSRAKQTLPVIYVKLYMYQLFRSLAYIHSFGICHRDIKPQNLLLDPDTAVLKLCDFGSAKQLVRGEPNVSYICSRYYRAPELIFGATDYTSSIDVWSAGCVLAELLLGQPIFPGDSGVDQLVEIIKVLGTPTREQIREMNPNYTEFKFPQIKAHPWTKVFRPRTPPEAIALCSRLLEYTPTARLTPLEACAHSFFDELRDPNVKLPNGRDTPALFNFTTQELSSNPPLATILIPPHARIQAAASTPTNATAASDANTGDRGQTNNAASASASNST

[22] = target: cAMP-dependent protein kinase catalytic subunit alpha (Homo sapiens, UniProt P17612); type: functional
[23] = target: Serine/threonine-protein kinase MRCK alpha (Homo sapiens, UniProt Q5VT25); type: functional
[24] = target: Tyrosine-protein kinase receptor TYRO3 (Homo sapiens, UniProt Q06418); type: functional;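 also: TYRO3 value obtained as one member of a kinome-wide profiling panel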
[25] = target: Casein kinase I isoform alpha (Homo sapiens, UniProt P48729); type: functional
[26] = target: Dual specificity tyrosine-phosphorylation-regulated kinase 1B (Homo sapiens, UniProt Q9Y463); test: Navigating the Kinome. Panel member name: DYRK1B; type: functional
Chain of Dual specificity tyrosine-phosphorylation-regulated kinase 1B (Q9Y463 whole entry): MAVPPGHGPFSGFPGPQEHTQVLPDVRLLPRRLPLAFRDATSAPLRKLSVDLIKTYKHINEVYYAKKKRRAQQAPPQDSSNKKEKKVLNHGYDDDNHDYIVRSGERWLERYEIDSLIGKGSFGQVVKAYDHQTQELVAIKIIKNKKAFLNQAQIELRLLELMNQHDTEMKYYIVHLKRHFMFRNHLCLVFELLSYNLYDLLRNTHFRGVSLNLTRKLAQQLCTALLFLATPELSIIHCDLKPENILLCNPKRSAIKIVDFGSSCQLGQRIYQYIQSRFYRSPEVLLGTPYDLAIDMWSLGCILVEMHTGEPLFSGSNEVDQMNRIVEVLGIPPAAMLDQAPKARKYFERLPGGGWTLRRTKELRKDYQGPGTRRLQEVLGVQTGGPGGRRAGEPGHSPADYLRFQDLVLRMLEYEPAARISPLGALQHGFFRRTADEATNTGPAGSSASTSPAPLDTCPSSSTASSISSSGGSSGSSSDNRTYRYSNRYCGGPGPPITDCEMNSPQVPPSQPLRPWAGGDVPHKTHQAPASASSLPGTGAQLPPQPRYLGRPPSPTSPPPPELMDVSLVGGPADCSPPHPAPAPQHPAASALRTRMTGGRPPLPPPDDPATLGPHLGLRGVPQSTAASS

Activin receptor type-1 = Activin receptor type-1 (Homo sapiens, UniProt Q04771); test: Navigating the Kinome. Panel member name: ACVR1; type: functional
[27] = target: Tyrosine-protein kinase ABL1 (Homo sapiens, UniProt P00519); type: functional
[28] = target: Insulin-like growth factor 1 receptor (Homo sapiens, UniProt P08069); test: Navigating the Kinome. Panel member name: IGF1R; type: functional
[29] = target: T1, High affinity choline transporter 1 (Homo sapiens, UniProt Q9GZV3); test: CHT activators, dose response, cell-based, 10-point CRC, membrane potential dye (AID 602376); type: functional
T1 sequence (Q9GZV3 whole entry): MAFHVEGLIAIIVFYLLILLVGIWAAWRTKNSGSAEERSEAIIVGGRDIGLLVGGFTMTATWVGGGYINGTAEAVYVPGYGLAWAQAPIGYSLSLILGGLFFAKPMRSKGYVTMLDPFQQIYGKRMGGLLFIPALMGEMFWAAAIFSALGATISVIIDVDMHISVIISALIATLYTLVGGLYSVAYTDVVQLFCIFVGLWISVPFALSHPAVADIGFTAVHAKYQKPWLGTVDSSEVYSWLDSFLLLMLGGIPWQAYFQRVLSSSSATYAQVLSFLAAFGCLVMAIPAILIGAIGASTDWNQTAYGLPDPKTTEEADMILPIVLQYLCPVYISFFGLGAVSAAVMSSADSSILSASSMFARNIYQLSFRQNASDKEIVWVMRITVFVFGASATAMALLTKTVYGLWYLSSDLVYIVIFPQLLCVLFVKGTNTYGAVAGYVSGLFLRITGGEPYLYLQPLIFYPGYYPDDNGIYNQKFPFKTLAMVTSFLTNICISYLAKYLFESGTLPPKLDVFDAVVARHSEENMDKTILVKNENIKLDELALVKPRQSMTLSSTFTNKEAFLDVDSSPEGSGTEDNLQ

[30] = target: Cell division cycle 7-related protein kinase (Homo sapiens, UniProt O00311); type: functional;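 also: value obtained from a kinome-wide kinase panel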
[31] = target: Homeodomain-interacting protein kinase 2 (Homo sapiens, UniProt Q9H2X6); type: functional;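 also: measured within a kinome-wide kinase profiling panel, HIPK2 being one panel member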
[32] = target: Interleukin-1 receptor-associated kinase 4 (Homo sapiens, UniProt Q9NWZ3); type: functional
Chain of Interleukin-1 receptor-associated kinase 4 (Q9NWZ3 whole entry): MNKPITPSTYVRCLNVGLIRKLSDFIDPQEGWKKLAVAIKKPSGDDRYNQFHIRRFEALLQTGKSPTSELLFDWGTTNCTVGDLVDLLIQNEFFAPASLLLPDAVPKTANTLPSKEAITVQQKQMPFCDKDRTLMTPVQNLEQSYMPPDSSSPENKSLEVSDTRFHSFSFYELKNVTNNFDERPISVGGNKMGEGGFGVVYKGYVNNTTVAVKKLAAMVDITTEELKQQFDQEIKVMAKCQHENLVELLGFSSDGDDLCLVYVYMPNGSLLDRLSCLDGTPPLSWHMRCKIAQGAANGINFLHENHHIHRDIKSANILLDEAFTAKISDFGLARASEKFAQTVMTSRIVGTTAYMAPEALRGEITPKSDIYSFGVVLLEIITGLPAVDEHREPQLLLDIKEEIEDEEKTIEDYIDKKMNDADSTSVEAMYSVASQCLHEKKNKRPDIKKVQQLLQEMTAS

[33] = target: Dual specificity protein kinase CLK4 (Homo sapiens, UniProt Q9HAZ1); type: functional
[34] = target: Mitogen-activated protein kinase kinase kinase kinase 4 (Homo sapiens, UniProt O95819); type: functional
Aspartyl aminopeptidase = Aspartyl aminopeptidase (Plasmodium falciparum 3D7, UniProt Q8I2J3)
Chain of Aspartyl aminopeptidase (Q8I2J3 whole entry): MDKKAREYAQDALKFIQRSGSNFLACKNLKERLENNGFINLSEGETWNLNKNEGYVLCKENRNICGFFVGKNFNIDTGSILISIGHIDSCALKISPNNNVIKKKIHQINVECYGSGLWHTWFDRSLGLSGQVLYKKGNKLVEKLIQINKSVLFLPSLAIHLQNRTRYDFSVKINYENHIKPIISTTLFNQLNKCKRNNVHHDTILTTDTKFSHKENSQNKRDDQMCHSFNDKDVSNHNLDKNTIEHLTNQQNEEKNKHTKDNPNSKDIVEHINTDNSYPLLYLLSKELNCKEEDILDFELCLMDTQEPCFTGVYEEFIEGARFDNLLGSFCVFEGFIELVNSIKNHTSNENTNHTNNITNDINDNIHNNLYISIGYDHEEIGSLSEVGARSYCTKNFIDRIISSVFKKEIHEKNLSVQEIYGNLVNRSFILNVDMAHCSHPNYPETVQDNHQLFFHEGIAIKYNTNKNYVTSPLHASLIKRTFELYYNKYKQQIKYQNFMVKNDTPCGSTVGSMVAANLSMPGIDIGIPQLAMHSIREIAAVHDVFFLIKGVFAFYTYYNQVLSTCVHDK

Procathepsin L = Procathepsin L (Homo sapiens, UniProt P07711)
[35] = target: Multidrug resistance protein CDR1 (Candida albicans, UniProt P43071); test: CaCDR1 efflux pump inhibitors in yeast, dose response, S. cerevisiae AD1-8u, singleplex, Cherry Pick1 hits (AID 588606); type: functional

O=C1NC(=O)C(Nc2ccccc2)=C1Cl was tested, and the Ki [1] was > 20 µM (inactive), the Ki [2] was > 20 µM (inactive) and the Ki [3] was > 20 µM (inactive). For the same molecule, the Ki [4] was > 25.1 µM (inactive), the Ki [5] was > 25.1 µM (inactive) and the Ki [6] was > 20 µM (inactive). For the same molecule, the Ki [7] was > 15.8 µM (inactive), the Ki [8] was > 25.1 µM (inactive) and the Ki [9] was > 20 µM (inactive). The Ki [10] was 15.8 µM (active), the Ki (Aurora kinase A) was 15.8 µM (active) and the Ki [11] was > 20 µM (inactive). The Ki [12] was > 15.8 µM (inactive), the Ki [13] was > 12.6 µM (inactive) and the Ki [14] was > 12.6 µM (inactive). For the same molecule, the Ki [15] was > 15.8 µM (inactive), the Ki [16] was > 20 µM (inactive) and the Ki [17] was 12.6 µM (active). The Ki (Ephrin type-A receptor 2) was > 20 µM (inactive), the Ki [18] was > 20 µM (inactive) and the Ki [19] was > 20 µM (inactive). The Ki [20] was > 20 µM (inactive), the Ki [21] was 1 µM (active) and the Ki [22] was > 20 µM (inactive). For the same molecule, the Ki [23] was > 25.1 µM (inactive).

For NC(=O)c1ccccc1-c1ncc[nH]1, the Ki [24] was 79.4 µM (active), the Ki [25] was 50.1 µM (active) and the Ki [26] was 63.1 µM (active).

With CC(C)(C)c1nc2c3ccc(F)cc3c3c(=O)[nH]ccc3c2[nH]1 the Ki (Activin receptor type-1) was > 3.98 µM (inactive), the Ki [27] was > 2.51 µM (inactive) and the Ki [28] was > 2.51 µM (inactive). The Ki [26] was > 2.51 µM (inactive).

For COC(=O)CCC(=O)Nc1sc2c(c1C#N)CCCC2, the EC50 [29] was 14 µM (active).

In the case of O=c1cc(-c2cccc(F)c2)[nH]c2c(-c3ccc(F)cc3)cnn12, the Ki [9] was > 7.94 µM (inactive), the Ki [10] was 0.126 µM (active) and the Ki [30] was 0.0631 µM (active). The Ki [31] was 0.501 µM (active), the Ki [32] was > 10 µM (inactive) and the Ki [21] was 2 µM (active). For the same molecule, the Ki [22] was > 7.94 µM (inactive), the Ki [33] was 0.158 µM (active) and the Ki [34] was > 10 µM (inactive).

O=C1NC(=S)NC(=O)C1=Cc1cc2ccccc2[nH]1 was tested, and the IC50 (Aspartyl aminopeptidase) was 1.67 µM (active), the IC50 (Procathepsin L) was > 59.6 µM (not active) and the EC50 [35] was 6 µM (active).
